In patent publication US8771953B2, “Evaluation of the potential risk of drug induced mood disturbance and suicide: use of a dedicated platform” (Biocortech, priority 2008, dated 2014):
Like-named read-outs stand apart in the source and are kept apart here.

Key:
5-HT2cR mRNA = assay: Editing profile of 5-HT2cR mRNA isoforms by CE-SSCP (nested PCR) in SH-SY5Y cells; enzyme activity indexes worked out from the profile; type: cell-based, human; settings: Homo sapiens, SH-SY5Y, 10 micromolar, 24 hours
ADAR1a mRNA = assay: Q-PCR of ADAR1a mRNA expression in SH-SY5Y cells; type: cell-based; settings: Homo sapiens, 10 micromolar, 24 hours, read-out: QPCR: RNA expresion (% of variation) ADAR1a
Text: ADAR1a RNA Expression in SH-SY5Y cells (Q-PCR, Applied TaqMan probes ref: Hs 01020780_m1).
(§1) The SH-SY5Y Human neuroblastoma cell line was purchased from ECACC (EC94030304 from the European Collection of Cell Cultures (ECACC)). The cell line SH-SY5Y is a thrice-cloned neuroblastoma, originally from SK-N-SH and first reported in 1978. A neuroblast-like subclone of SK-N-SH, named SH-SY, was subcloned as SH-SY5, which was subcloned again as SH-SY5Y (Biedler J L et al. Cancer Res. 1978; 38:3751-7). Cells were cultured in high glucose D-MEM medium (Sigma, ref D6546) supplemented with 10% dialysed FCS (PAA, ref. A15-507, lot A50708-0050), 2 mM Glutamine (Sigma, G7513) and a 1× mix of Antibiotic-Antimycotic Stabilized (Sigma, ref. A5955) at 37° C. under a humidified atmosphere of 5% CO2. The day preceeding drug or hIFNα treatment, SH-SY5Y cells were plated in 6-well plates at a density of 10^6 cells/well. One 6-well plate was used per experimental condition (concentration or treatment duration). The day after plating, culture medium was removed and cells were incubated for 24 hours with a 10 μM solution of the compound to be tested molecules or a 1000 IU/ml solution of hIFNα (PBL biomedical laboratories). For hIFNα dose-response experiment cells were incubated with 1, 10, 100, and 1000 IU/ml of hIFNα solutions. For hIFNα time-course experiment cells were treated for 24, 48, or 72 hours with a 1000 IU/ml solution of hIFNα. After the different treatments, cells were directly lysed in RLT lysis buffer and total RNA purified according to manufacturer's protocol (Qiagen, RNeasy Plus mini kit, ref. 74134). Total RNA was then reverse transcribed with Thermoscript RT-PCR system Plus Taq (Invitrogen, 11146-032) and the resulting cDNA used for CE-SSCP and quantitative real-time PCR.
(§2) In order to quantify levels of 5-HT2CR, ADAR1 and ADAR2 mRNA expression in SH-SY5Y cells or in prefrontal cortex, total blood and skin of Balb/cJ mice, first-strand cDNA was synthesized by reverse transcription and subjected to TaqMan quantitative real-time PCR analysis (Applied Biosystems). All probes and primers used for the quantitative PCRs were from Applied Bio systems (Gene Expression Assays, Assay-On-Demand) (see Table 1, Applied Biosystems primers and probes references): […]
(§3) Human GAPDH (product no. 4326317E; Applied Biosystems) or mouse GAPDH (product no. 4352339E; Applied Biosystems) were included in each multiplex PCR as an internal control. Real-time PCR and subsequent analysis were performed with a 48-well block StepOne RT PCR system (Applied Biosystems). Quantification of target gene expression in all samples was normalized to GAPDH expression by the equation Ct (target)−Ct (GAPDH)=ΔCt, where Ct is the threshold cycle number. The mean ΔCt value of samples from untreated mice or cells was determined and used as a reference point for the samples corresponding to treated animals or cells. Differences between untreated and treated animals or cells, including individual variation were calculated by the equation (ΔCt (individual treated samples)−ΔCt (mean of untreated samples)=ΔΔCt). Changes in target gene expression (n-fold) in each sample were calculated by 2^−ΔΔCt, from which the means and standard deviations (SD) were derived.
(§4) The SH-SY5Y Human neuroblastoma cell line was purchased from ECACC. Cells were cultured in high glucose D-MEM medium (Sigma, ref. D6546) supplemented with 10% dialysed FCS (PAA, ref. A15-507, lot A50708-0050), 2 mM Glutamine (Sigma, ref. G7513) and a 1× mix of Antibiotic-Antimycotic Stabilized (Sigma, ref. A5955) at 37° C. under a humidified atmosphere of 5% CO2. The day preceeding hIFNα or drug treatment, SH-SY5Y cells were plated in 6-well plates (Corning, Multiwell Plate, 6 well, Corning CellBIND Surface, ref 3335) at a density of 5; 7 or 9·10^6 cells/well for a 72-, 48- or 24-hour treatment respectively. Six or eight wells of 6-well plates were used per experimental condition (control, concentration or treatment duration).

ADAR1b mRNA = assay: Q-PCR of ADAR1b mRNA expression in SH-SY5Y cells; type: cell-based; settings: Homo sapiens, 10 micromolar, 24 hours, read-out: QPCR: RNA expresion (% of variation) ADAR1b
Description: as §1, §2, §3, §4

ADAR2 mRNA = assay: Q-PCR of ADAR2 mRNA expression in SH-SY5Y cells; type: cell-based; settings: Homo sapiens, 10 micromolar, 24 hours, read-out: QPCR: RNA expresion (% of variation) ADAR2
Description: as §1, §2, §3, §4

[1] = read-out: ENZYME ACTIVIY INDEX (% of variation) ADAR1
[2] = read-out: ENZYME ACTIVIY INDEX (% of variation) ADAR1 + 2
[3] = read-out: ENZYME ACTIVIY INDEX (% of variation) ADAR2
[4] = read-out: ENZYME ACTIVIY INDEX (% of variation) ADARI
[5] = read-out: ENZYME ACTIVIY INDEX (% of variation) ADARII
[6] = read-out: ENZYME ACTIVIY INDEX (% of variation) NE

Structure (SMILES) | activation at 10 µM (5-HT2cR mRNA; [1]) [%] | activation at 10 µM (5-HT2cR mRNA; [2]) [%] | activation at 10 µM (5-HT2cR mRNA; [3]) [%] | activation at 10 µM (5-HT2cR mRNA; [4]) [%] | activation at 10 µM (5-HT2cR mRNA; [5]) [%] | activation at 10 µM (5-HT2cR mRNA; [6]) [%] | % change in ADAR1a mRNA expression at 10 µM (ADAR1a mRNA) [%] | percent change in mRNA expression at 10 µM (ADAR1b mRNA) [%] | percent change in ADAR2 mRNA expression at 10 µM (ADAR2 mRNA) [%]
O=c1n(CCCN2CCN(c3cccc(Cl)c3)CC2)nc2ccccn12 [Trazodone] | 0 | 89.3 | 28.4 | 12.9 | 77.7 | 13.4 | -60 | -40 | 5
NS(=O)(=O)Cc1noc2ccccc12 [Zonisamide] | 11.9 | 9.7 | -7.8 | 11.5 | 6.3 | -10.5 | -24 | -19 | -23
